Key:
[1] = target: recombinant 17bHSD13 (N2-K300) (Homo sapiens (Human), UniProt Q7Z5P4); test: In Vitro 17bHSD13 Enzyme Assay; assay type: biochemical; settings: 80 nM 17bHSD13, 0.5 mM NAD, 20 μM Estradiol, 2.5 h; estradiol to estrone by LC-MS/MS
Summary of the method: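 Human 17bHSD13 (N2-K300, 80 nM) with 0.5 mM NAD, 20 μM estradiol and varied compound in 50 mM Tris-Cl pH 7.4, 5 mM EDTA, 0.01% DDM. Estrone/(estrone+estradiol) ratio read by LC-MS/MS (APCI, positive MRM). Inhibition normalised to DMSO and a known-inhibitor control; IC50 from curve fit.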

[2] = target: recombinant 17bHSD4 (M1-N311) (Homo sapiens (Human), UniProt P51659); test: In Vitro 17bHSD4 Enzyme Assay; assay type: biochemical; settings: 40 nM 17bHSD4, 0.125 mM NAD, 15 μM Estradiol, 1.5 h; NADH fluorescence; read-out: 17HSD17b4 Enzyme assay IC50
[3] = system: human hepatocytes; test: Assay A: Metabolic Stability in Human Hepatocytes; assay type: in vitro ADME; settings: cryopreserved human hepatocytes, 10^6 viable cells/mL, 1 μM compound, 37° C.
Summary of the method: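 Cryopreserved hepatocytes (10^6 viable cells/mL) at 37° C with 1 μM test compound, sampled 0.5–120 min and quenched in MeCN. Parent measured by LC-MS/MS; CLint (μL/min/10^6 cells) from the slope of ln(parent concentration) vs time.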

recombinant 17bHSD4 (M1-N311), sequence (P51659 1-311): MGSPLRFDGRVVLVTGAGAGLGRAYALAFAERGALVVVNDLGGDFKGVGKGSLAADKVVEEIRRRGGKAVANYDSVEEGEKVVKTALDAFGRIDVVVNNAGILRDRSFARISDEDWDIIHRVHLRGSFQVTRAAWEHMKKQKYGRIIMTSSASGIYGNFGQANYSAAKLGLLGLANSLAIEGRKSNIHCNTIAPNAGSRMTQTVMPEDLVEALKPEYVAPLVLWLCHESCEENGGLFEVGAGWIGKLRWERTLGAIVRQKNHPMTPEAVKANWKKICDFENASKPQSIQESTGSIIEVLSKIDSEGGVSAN
recombinant 17bHSD13 (N2-K300), sequence (Q7Z5P4 2-300): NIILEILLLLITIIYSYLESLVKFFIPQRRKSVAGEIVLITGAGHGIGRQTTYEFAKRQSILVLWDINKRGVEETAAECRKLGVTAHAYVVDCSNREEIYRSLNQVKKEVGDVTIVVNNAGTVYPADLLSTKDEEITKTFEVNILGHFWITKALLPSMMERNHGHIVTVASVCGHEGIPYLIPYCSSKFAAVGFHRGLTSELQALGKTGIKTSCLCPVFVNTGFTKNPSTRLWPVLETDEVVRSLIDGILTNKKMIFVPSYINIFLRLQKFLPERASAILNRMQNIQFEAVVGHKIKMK

Structure (SMILES) | IC50 [1] | IC50 [2] | Assay A: Human Heps Met Clint GMean CLint (μl/min/1E6) [3]
N#Cc1cccc2c1CCN(C(=O)c1noc(-c3cc(F)c(F)c(O)c3F)n1)C2 [Example 66, 2-(5-(2,4,5-Trifluoro-3-hydroxyphenyl)-1,2,4-oxadiazole-3-carbonyl)-1,2,3,4-tetrahydroisoquinoline-5-carbonitrile] | 187 nM | 19.3 µM | 12.1 μl/min/1E6
O=C(c1noc(-c2cc(F)c(F)c(O)c2F)n1)N1CCN(CCOc2ccc(Br)cn2)CC1 [Example 69, (4-(2-((5-Bromopyridin-2-yl)oxy)ethyl)piperazin-1-yl)(5-(2,4,5-trifluoro-3-hydroxyphenyl)-1,2,4-oxadiazol-3-yl)methanone] | 131 nM | 48.7 µM | 13.1 μl/min/1E6
O=C(c1noc(-c2cc(F)c(F)c(O)c2F)n1)N1CC(c2ccc(F)cc2)C1 [Example 74, (3-(4-Fluorophenyl)azetidin-1-yl)(5-(2,4,5-trifluoro-3-hydroxyphenyl)-1,2,4-oxadiazol-3-yl)methanone] | 89 nM | 21.1 µM | 14.4 μl/min/1E6
O=C(c1noc(-c2cc(F)c(F)c(O)c2F)n1)N1CCO[C@H]2CCC[C@H]21 [Example 112, ((4aR,7aS)-Hexahydrocyclopenta[b][1,4]oxazin-4(4aH)-yl)(5-(2,4,5-trifluoro-3-hydroxyphenyl)-1,2,4-oxadiazol-3-yl)methanone] | 197 nM | > 50 µM | 7.4 μl/min/1E6
CCCC1CCN(C(=O)c2noc(-c3cc(F)c(F)c(O)c3F)n2)C1 (stereo not drawn) [Example 76, (3-Propylpyrrolidin-1-yl)(5-(2,4,5-trifluoro-3-hydroxyphenyl)-1,2,4-oxadiazol-3-yl)methanone] | 128 nM | 44.8 µM | 18.2 μl/min/1E6
C[C@@H]1CC[C@H](C)N1C(=O)c1noc(-c2cc(F)c(F)c(O)c2F)n1 [Example 38, ((2R,5S)-2,5-Dimethylpyrrolidin-1-yl)(5-(2,4,5-trifluoro-3-hydroxyphenyl)-1,2,4-oxadiazol-3-yl)methanone] | 207 nM | 24 µM | 2.1 μl/min/1E6
O=C(c1noc(-c2cc(F)c(F)c(O)c2F)n1)N1CC2CCC(C1)C2(F)F [Example 43, (8,8-difluoro-3-azabicyclo[3.2.1]octan-3-yl)(5-(2,4,5-trifluoro-3-hydroxyphenyl)-1,2,4-oxadiazol-3-yl)methanone] | 339 nM | 39 µM | 3.3 μl/min/1E6
N#Cc1ccc2c(c1)CN(C(=O)c1noc(-c3cc(F)c(F)c(O)c3F)c1C#N)CC2 [Example 29, 3-(7-Cyano-1,2,3,4-tetrahydroisoquinoline-2-carbonyl)-5-(2,4,5-trifluoro-3-hydroxyphenyl)isoxazole-4-carbonitrile] | 157 nM | 17.6 µM | 16.9 μl/min/1E6
N#Cc1ccc2c(c1)CN(C(=O)c1noc(-c3cc(F)c(F)c(O)c3F)n1)CC2 [Example 86, 2-(5-(2,4,5-Trifluoro-3-hydroxyphenyl)-1,2,4-oxadiazole-3-carbonyl)-1,2,3,4-tetrahydroisoquinoline-7-carbonitrile] | 102 nM | 8.5 µM | 12.3 μl/min/1E6

Now those with a lower IC50 [1], led by results:

IC50 [1] | IC50 [2] | Structure (SMILES) | Assay A: Human Heps Met Clint GMean CLint (μl/min/1E6) [3]
46 nM | 11.7 µM | N#Cc1cccc2c1CCN(C(=O)c1noc(-c3c(F)c(O)c(F)c(F)c3I)n1)C2 [Example 109, 2-(5-(2,4,5-Trifluoro-3-hydroxy-6-iodophenyl)-1,2,4-oxadiazole-3-carbonyl)-1,2,3,4-tetrahydroisoquinoline-5-carbonitrile] | 13.0 μl/min/1E6
75 nM | 6.7 µM | O=C(c1noc(-c2cc(F)c(F)c(O)c2F)n1)N1CC(Oc2ccccc2)C1 [Example 2, (3-Phenoxyazetidin-1-yl)(5-(2,4,5-trifluoro-3-hydroxyphenyl)-1,2,4-oxadiazol-3-yl)methanone] | 14.7 μl/min/1E6
53 nM | 6.9 µM | O=C(c1noc(-c2cc(F)c(F)c(O)c2F)n1)N1CC[C@H](c2ccc(Cl)cc2)C1 [Example 95, (R)-(3-(4-Chlorophenyl)pyrrolidin-1-yl)(5-(2,4,5-trifluoro-3-hydroxyphenyl)-1,2,4-oxadiazol-3-yl)methanone] | 12.9 μl/min/1E6
82 nM | > 50 µM | O=C(c1noc(-c2cc(F)c(F)c(O)c2F)n1)N1CCOC2CCCC21 (stereo not drawn) [Example 41, (Hexahydrocyclopenta[b][1,4]oxazin-4(4aH)-yl)(5-(2,4,5-trifluoro-3-hydroxyphenyl)-1,2,4-oxadiazol-3-yl)methanone] | 5.9 μl/min/1E6

Reference: patent US20250011311A1, “AMIDO HETEROAROMATIC COMPOUNDS” (AstraZeneca AB, priority 2022, published 2025)
